Laboratory results as given in article PMC9281440, “In Vivo Distribution and Therapeutic Efficacy of Radioiodine-Labeled pH-Low Insertion Peptide Variant 3 in a Mouse Model of Breast Cancer” (Molecular Imaging, 2022).
Like-named read-outs stand apart in the source and are kept apart here. Peptide text beside a SMILES is read from it.

Assay: Micro-SPECT/CT imaging and distribution of 125I-labeled pHLIPs
Type: in vivo
Details: female, mouse, total radioactivity, 4T1 tumor-bearing nude mice, 3.7 MBq iv, micro-SPECT/CT ROI, mean ± SD, n = 4; for tissue uptake at 4 h: 4 h pi; for tissue uptake at 24 h: 24 h pi; for tissue uptake at 48 h: 48 h pi; for tissue uptake at 1 h: 1 h pi; for tissue uptake at 2 h: 2 h pi
Method: Five-week-old female athymic BALB/c nude mice (Shanghai Slaccas Experiment Animal Corp., Shanghai, China) were used in our study. Mouse xenograft models of MDA-MB-231, 4T1, and SK-BR-3 cells were produced by the subcutaneous injection of 5 × 10^6 cells (suspended in 150 μL PBS) into the right axilla of each mouse. The mice were used in subsequent experiments when tumor diameter reached 0.5-0.9 cm. The study protocol was approved by the institutional review board and by the Experimental Animal Center of Ruijin Hospital affiliated to the School of Medicine of Shanghai Jiao Tong University.
Three days before micro-SPECT/CT imaging, 300 μL of 1% Kl solution was administered to mice by oral gavage once a day, and 0.1% Kl was added into the drinking water to block thyroid gland activity. Mice-bearing MDA-MB-231, 4T1, or SK-BR-3 tumors were intravenously injected with 3.7 MBq of ^125I-WT-pHLIP or ^125I-Var3-pHLIP. Each group contained four mice. The mice were anesthetized by isoflurane inhalation, placed in the prone position, and scanned using a four-head SPECT/CT system (U-SPECT/CT, MI-Lab, Netherlands) and dedicated multipinhole apertures with a diameter of 1.5 mm at 1, 2, 4, 24, and 48 h after injection of ^125I-labeled peptides. CT images were acquired after static SPECT imaging (10 min/frame). The images were reconstructed using U-SPECT REC software and analyzed using PMOD software version 3.9 (Switzerland). Regions of interest (ROIs) were drawn in the tumors and organs, including the brain, heart, liver, lungs, kidneys, intestine, and bladder, at various time points. The radioactivity per gram (ID%/g) in the ROIs was measured to obtain the dynamic tumor-to-background ratio (TBR, muscle tissue was used as the background) and the in vivo distribution and kinetics of ^125I-WT-pHLIP and ^125I-Var3-pHLIP in the xenograft models of BC.

[1] = BALB/c nude, read-out: Distribution, Tumor
[2] = athymic BALB/c nude, bladder, read-out: Distribution, Bladder
[3] = athymic BALB/c nude, brain, read-out: Distribution, Brain
[4] = athymic BALB/c nude, heart, read-out: Distribution, Heart
[5] = athymic BALB/c nude, intestine, read-out: Distribution, Intestine
[6] = athymic BALB/c nude, kidney, read-out: Distribution, Kidney
[7] = athymic BALB/c nude, liver, read-out: Distribution, Liver
[8] = athymic BALB/c nude, lung, read-out: Distribution, Lung
[9] = athymic BALB/c nude, muscle, read-out: Distribution, Muscle

tissue uptake at 4 h [1]: 3.4 ± 0.73 %ID/g
tissue uptake at 24 h [1]: 0.21 ± 0.07 %ID/g
tissue uptake at 48 h [1]: 0.12 ± 0.04 %ID/g
tissue uptake at 1 h [2]: 33.7 ± 21.1 %ID/g
tissue uptake at 2 h [2]: 24.9 ± 10.8 %ID/g
tissue uptake at 4 h [2]: 42.7 ± 17.6 %ID/g
tissue uptake at 24 h [2]: 2.83 ± 1.65 %ID/g
tissue uptake at 48 h [2]: 0.21 ± 0.13 %ID/g
tissue uptake at 1 h [3]: 1.44 ± 0.24 %ID/g
tissue uptake at 2 h [3]: 1.32 ± 0.49 %ID/g
tissue uptake at 4 h [3]: 1.04 ± 0.47 %ID/g
tissue uptake at 24 h [3]: 0.16 ± 0.1 %ID/g
tissue uptake at 48 h [3]: 0.13 ± 0.09 %ID/g
tissue uptake at 1 h [4]: 14.4 ± 2.44 %ID/g
tissue uptake at 2 h [4]: 11 ± 2.39 %ID/g
tissue uptake at 4 h [4]: 8.21 ± 2.03 %ID/g
tissue uptake at 24 h [4]: 0.36 ± 0.16 %ID/g
tissue uptake at 48 h [4]: 0.17 ± 0.05 %ID/g
tissue uptake at 1 h [5]: 3.65 ± 0.64 %ID/g
tissue uptake at 2 h [5]: 3.63 ± 1.19 %ID/g
tissue uptake at 4 h [5]: 3.23 ± 0.7 %ID/g
tissue uptake at 24 h [5]: 0.28 ± 0.15 %ID/g
tissue uptake at 48 h [5]: 0.14 ± 0.11 %ID/g
tissue uptake at 1 h [6]: 7.98 ± 3.12 %ID/g
tissue uptake at 2 h [6]: 7.97 ± 2.23 %ID/g
tissue uptake at 4 h [6]: 4.99 ± 2.04 %ID/g
tissue uptake at 24 h [6]: 0.39 ± 0.3 %ID/g
tissue uptake at 48 h [6]: 0.2 ± 0.13 %ID/g
tissue uptake at 1 h [7]: 14.9 ± 3.55 %ID/g
tissue uptake at 2 h [7]: 13.2 ± 2.28 %ID/g
tissue uptake at 4 h [7]: 12.6 ± 3.61 %ID/g
tissue uptake at 24 h [7]: 0.6 ± 0.16 %ID/g
tissue uptake at 48 h [7]: 0.23 ± 0.04 %ID/g
tissue uptake at 1 h [8]: 13.8 ± 3.09 %ID/g
tissue uptake at 2 h [8]: 11.3 ± 3.09 %ID/g
tissue uptake at 4 h [8]: 9.4 ± 2.45 %ID/g
tissue uptake at 24 h [8]: 0.48 ± 0.15 %ID/g
tissue uptake at 48 h [8]: 0.19 ± 0.1 %ID/g
tissue uptake at 1 h [9]: 1.41 ± 0.61 %ID/g
tissue uptake at 2 h [9]: 1.03 ± 0.19 %ID/g
tissue uptake at 4 h [9]: 0.8 ± 0.26 %ID/g
tissue uptake at 24 h [9]: 0.06 ± 0.04 %ID/g
tissue uptake at 48 h [9]: 0.03 ± 0.03 %ID/g
tissue uptake at 1 h (athymic BALB/c nude, read-out: Distribution, Tumor): 4.26 ± 1.24 %ID/g
Structure (SMILES): CC(C)C[C@H](NC(=O)[C@H](Cc1ccc(O)c(I)c1)NC(=O)[C@H](C)NC(=O)[C@H](CCCNC(=N)N)NC(=O)[C@H](Cc1c[nH]c2ccccc12)NC(=O)[C@@H]1CCCN1C(=O)[C@H](CC(N)=O)NC(=O)[C@H](CCC(N)=O)NC(=O)[C@H](CC(=O)O)NC(=O)[C@H](CC(=O)O)NC(=O)[C@H](CS)NC(=O)[C@H](C)N)C(=O)N[C@@H](CC(=O)O)C(=O)N[C@@H](CC(C)C)C(=O)N[C@@H](CC(C)C)C(=O)N[C@@H](Cc1ccccc1)C(=O)N1CCC[C@H]1C(=O)N[C@H](C(=O)N[C@@H](CC(=O)O)C(=O)N[C@H](C(=O)N[C@@H](CC(C)C)C(=O)N[C@@H](CC(C)C)C(=O)N[C@@H](CC(C)C)C(=O)N[C@@H](CC(=O)O)C(=O)N[C@@H](CC(C)C)C(=O)N[C@@H](CC(C)C)C(=O)N[C@@H](Cc1c[nH]c2ccccc12)C(=O)N[C@@H](CCCCN)C(=O)O)[C@@H](C)O)[C@@H](C)O [125I-Var3-pHLIP] (HELM PEPTIDE1{A.C.D.D.Q.N.P.W.R.A.[O=C([C@H](Cc1ccc(O)c(I)c1)N[*:1])[*:2]].L.D.L.L.F.P.T.D.T.L.L.L.D.L.L.W.K}$$$$V2.0; N-terminus and C-terminus assumed)
